The values below come from patent US7671066B2, “Derivatives of 1-phenyl-2-pyridynyl alkylene alcohols as phosphodiesterase inhibitors” (Chiesi Farmaceutici S.p.A., priority 2006, dated 2010).

One data set concerns the target HPDE4. Kind of data set: Competition for high affinity HPDE4 ([H3]rolipram binding). The settings on record: 50% inhibition of the binding of [H3]rolipram. Here is the method:
(§1) In the case of LPDE4, the IC50 is the molar concentration of the test compound producing 50% inhibition of cAMP disappearance, assessed as described in Cortijo J et al Br J Pharmacol 1993, 108: 562-568, while in the case of HPDE4, the IC50 is the molar concentration of the test compound producing 50% inhibition of the binding of [H^3]rolipram, assessed as described in Duplantier A J et al J Med Chem 1996; 39: 120-125.
(§2) The affinity toward LPDE4 and HPDE4 was assessed as previously described respectively in Cortijo J et al Br J Pharmacol 1993, 108: 562-568 and Duplantier A J et al J Med Chem 1996; 39: 120-125.
(§3) The concentration of the test compounds ranged between 10^−12 M and 10^−5 M.
(§4) In the case of LPDE4, the IC50 is the molar concentration of the test compound producing 50% inhibition of cAMP disappearance, while in the case of HPDE4, the IC50 is the molar concentration of the test compound producing 50% inhibition of the binding of [H^3] rolipram.

The subject of the next data set is LPDE4. Kind of data set: Inhibition of low affinity LPDE4 (cAMP disappearance). The format is biochemical. Conditions: for IC50: 50% inhibition of cAMP disappearance; for HPDE4/LPDE4: ratio of IC50 values. Here is the method:
as §1, §2, §3, §4

The test system of the next data set is PDE4 enzyme. Kind of data set: PDE4 inhibitory activity in the cell free assay (cAMP disappearance, U937 cell supernatant). The format is biochemical, human. The settings on record: 1.6 μM cAMP, 30 min at 30° C., mean (95% confidence limits). How it is done: The U937 human monocytic cell line was used as source of PDE4 enzyme. Cells were cultured, harvested and supernatant fraction prepared essentially as described in Torphy T J et al J. Pharmacol. Exp. Ther. 1992; 263:1195-1205.
PDE4 activity was determined in cells supernatants by assaying cAMP disappearance from the incubation mixtures. 50 μl of cell supernatant were incubated at 30° C. for 30 minutes in a final volume of 200 μl in the presence of 1.6 μM cAMP with or without the test compound (50 μl).
The concentration of the test compounds ranged between 10^−12 M and 10^−6 M. Reactions were stopped by heat inactivation (2.5 minutes at 100° C.) and residual cAMP was measured using an electro-chemiluminescence (ECL)-based immunoassay.
The results, expressed as mean ±95% confidence limits of the molar concentration of the test compound producing 50% inhibition of cAMP disappearance (IC50) are reported in Table 1 of Example 38.
Percentage of inhibition of PDE4 activity was calculated, assuming cAMP disappearance in the absence of inhibitors as 100% and cAMP disappearance in heat inactivated samples as 0%.

Data set [1] relates to LPS-induced TNF-α release in peripheral blood mononuclear cells (PBMCs). The experiment in a line: PDE4 inhibitory activity in the PBMCs assay (LPS-induced TNF-α release). The format is cell-based. Conditions: PBMC; human PBMCs, LPS 3 ng/ml, 18 h, TNF-α by ELISA; mean (95% confidence limits). Here is the method:
The assay, which is based on the known inhibitory activity exerted by PDE4 inhibitors on the lipopolyshaccarides (LPS)-induced tumour necrosis factor-alpha (TNF-α) release in peripheral blood mononuclear cells (PBMCs), was performed according to a method previously described (Hatzelmann A et al J. Pharmacol. Exp. Ther. 2001; 297:267-279; Draheim R et al J. Pharmacol. Exp. Ther. 2004; 308:555-563.
Cryopreserved human PBMCs, (100 μl/well) were incubated in 96-well plates (10^5 cells/well), for 30 min, in the presence or absence (50 microl) of the test compounds whose concentrations ranged from 10^−12 M to 10^−6 M. Subsequently, LPS (3 ng/ml) was added.
After 18 h incubation at 37° C. in a humidified incubator under an atmosphere of 95% air and 5% CO2, culture medium was collected and TNF-α measured by ELISA.
The results, expressed as mean ±95% confidence limits of the molar concentration of the test compound producing 50% inhibition of LPS-induced TNF-α release (IC50) are reported in Table 1.
The effects of the tested compounds were calculated as percentage of inhibition of TNF-α release, assuming LPS-induced TNF-α production in the absence of inhibitor compound as 100% and basal TNF-α production of PBMCs in the absence of LPS as 0%.

Data set [2] can be described thus: Pulmonary and plasma levels after intratracheal administration. The data set is classed as in vivo, rats.
In data set [3] the test system is bronchoalveolar lavage neutrophils. Kind of data set: LPS-induced acute pulmonary inflammation in rats (animal model of COPD), intratracheal administration. The data set is classed as in vivo. Here is the method: The anti-inflammatory activity of a representative compound of the invention, e.g. CHF 5480 was evaluated after intratracheal (i.t.) administration according to the method described in Belvisi M G J Pharmacol Exp Ther 2005, 314: 568-574.
CHF 5480 was tested by i.t. instillation 24 h and 1 h before exposure to LPS.

The structures appear in SMILES notation.

Take `COc1ccc(C(=O)Cc2c(Cl)cncc2Cl)cc1OC1CCCC1` [CHF 5400, 1-(3-cyclopentyloxy-4-methoxy-phenyl)-2-(3,5-dichloro-pyridin-4-yl)-ethanone, reference compound]: the half-maximal inhibitory concentration (IC50) (usually the point on the concentration scale where inhibition reaches its midpoint) on HPDE4 was 0.61 nM. Further, in the data set with LPDE4, the IC50 was 0.94 nM and the HPDE4/LPDE4 is reported as 1.5.
For `COc1ccc(C(=O)O/C(=C\c2c(Cl)cncc2Cl)c2ccc(OC)c(OC3CCCC3)c2)cc1OC1CCCC1` [CHF 5408, 3-Cyclopentyloxy-4-methoxy-benzoic acid, (Z)-1-(3-cyclopentyloxy-4-methoxy-phenyl)-2-(3,5-dichloro-pyridin-4-yl)vinyl ester], the half-inhibitory concentration (IC50) at HPDE4 is 0.74 nM; in the data set on PDE4 enzyme it was 1.3 nM; in the data set with LPDE4, 42.6 nM; in data set [1], 0.9 nM. Further, the HPDE4/LPDE4 in the data set on LPDE4 came to 57.6.
`COc1ccc(/C(=C/c2c(Cl)cncc2Cl)OC(=O)c2ccccc2)cc1OC` [CHF 5415, Benzoic acid, (Z)-2-(3,5-dichloro-pyridin-4-yl)-1-(3,4-dimethoxy-phenyl)vinyl ester]: the IC50 (with PDE4 enzyme; in data set [1]) was 5.7 nM in each case.
Consider `COc1ccc(C(=O)O/C(=C\c2c(Cl)cncc2Cl)c2ccc(OC)c(OC)c2)cc1` [CHF 5429, 4-Methoxy-benzoic acid, (Z)-2-(3,5-dichloro-pyridin-4-yl)-1-(3,4-dimethoxy-phenyl)vinyl ester], for which the IC50 in the data set on PDE4 enzyme came out at 1 nM; in data set [1], 5.6 nM.
For `COc1ccc(C(=O)O/C(=C\c2c(Cl)cncc2Cl)c2ccc(OC(F)F)c(OCC3CC3)c2)cc1OC` [CHF 5472, 3,4-Dimethoxy-benzoic acid, (Z)-1-(3-cyclopropylmethoxy-4-difluoromethoxy-phenyl)-2-(3,5-dichloro-pyridin-4-yl)vinyl ester] the same measures were 4 nM and 5.4 nM.
As to `COc1ccc(/C(=C/c2c(Cl)cncc2Cl)OC(=O)[C@@H](C)c2ccc(CC(C)C)cc2)cc1OC` [CHF 5480, 2-(S)-(4-Isobutyl-phenyl)-propionic acid, (Z)-2-(3,5-dichloro-pyridin-4-yl)-1-(3,4-dimethoxy-phenyl)vinyl ester], the levels in plasma result in data set [2] (i.t. administration, plasma) was “no detectable levels”. The MRT in data set [2] (rat, other: intratracheal (i.t.) instillation, lung, read-out: mean residence time in the lungs) was found to be 15.3 h. The values for the IC50 (in the data set on PDE4 enzyme; in data set [1]) were 17.9 nM and 26 nM, respectively. The “inhibition of bronchoalveolar lavage neutrophils” value in data set [3] (i.t. instillation 24 h and 1 h before LPS, doses 0.001 to 10 μmoles/kg) is “significant and dose-dependent inhibition”. Also, in data set [3] (i.t., 1 μmole/kg dose), the “reduction of neutrophilia (maximal effect)” value was determined as 60%.
Consider `COc1ccc(/C(=C/c2c(Cl)cncc2Cl)OC(=O)c2ccc([N+](=O)[O-])cc2)cc1OC` [CHF 5513, 4-Nitro-benzoic acid, (Z)-2-(3,5-dichloro-pyridin-4-yl)-1-(3,4-dimethoxy-phenyl)vinyl ester], for which the values for the IC50 (in the data set on PDE4 enzyme; in data set [1]) were 0.5 nM and 8.5 nM, respectively.
For `O=C(O/C(=C\c1c(Cl)cncc1Cl)c1ccc(OC(F)F)c(OCC2CC2)c1)c1ccc(OC(F)F)c(OCC2CC2)c1` [CHF 5514, 3-Cyclopropylmethoxy-4-difluoromethoxy-benzoic acid, (Z)-1-(3-cyclopropylmethoxy-4-difluoromethoxy-phenyl)-2-(3,5-dichloro-pyridin-4-yl)vinyl ester], the 50% inhibitory concentration (IC50) in the data set with PDE4 enzyme came to 1.2 nM; in data set [1] it was 12.5 nM.
For `COc1ccc(/C(=C/c2c(Cl)cncc2Cl)OC(=O)c2ccc(NS(C)(=O)=O)cc2)cc1OC` [CHF 5526, 4-Methanesulfonylamino-benzoic acid (Z)-2-(3,5-dichloro-pyridin-4-yl)-1-(3,4-dimethoxy-phenyl)vinyl ester], the half-inhibitory concentration (IC50) in the data set with PDE4 enzyme was 0.7 nM; in data set [1], 3.77 nM.
For `COc1ccc(C(=O)O/C(=C\c2c(Cl)cncc2Cl)c2ccc(OC)c(OC3CCCC3)c2)cc1OCc1ccccc1` [CHF 5528, 3-Benzyloxy-4-methoxy-benzoic acid, (Z)-1-(3-cyclopentyloxy-4-methoxy-phenyl)-2-(3,5-dichloro-pyridin-4-yl)vinyl ester], the values for the IC50 (in the data set with PDE4 enzyme; in data set [1]) were 7.3 nM and 21.8 nM, respectively.
In the same order, the values of `COc1ccc(/C(=C/c2c(Cl)cncc2Cl)OC(=O)c2ccc(N)cc2)cc1OC` [CHF 5530, 4-Amino-benzoic acid, (Z)-2-(3,5-dichloro-pyridin-4-yl)-1-(3,4-dimethoxy-phenyl)vinyl ester] are 1.7 nM and 5.4 nM.
In the same order, the values of `COc1ccc(C(=O)O/C(=C\c2c(Cl)cncc2Cl)c2ccc(OC)c(OC3CCCC3)c2)cc1OC` [CHF 5532, 3,4-Dimethoxy-benzoic acid, (Z)-1-(3-cyclopentyloxy-4-methoxy-phenyl)-2-(3,5-dichloro-pyridin-4-yl)vinyl ester] are 12.6 nM and 2.2 nM.
For `COc1ccc(/C(=C/c2c(Cl)cncc2Cl)OC(=O)c2ccc(NS(=O)(=O)c3ccc(F)cc3)cc2)cc1OC` [CHF 5533, 4-(4-Fluoro-benzenesulfonylamino)-benzoic acid, (Z)-2-(3,5-dichloro-pyridin-4-yl)-1-(3,4-dimethoxy-phenyl)vinyl ester] the same measures were 0.37 nM and 3.1 nM.
As for `COc1ccc(/C(=C/c2c(Cl)cncc2Cl)OC(=O)c2ccc(NS(=O)(=O)c3ccc(C)cc3)cc2)cc1OC` [CHF 5537, 4-(Toluene-4-sulfonylamino)-benzoic acid, (Z)-2-(3,5-dichloro-pyridin-4-yl)-1-(3,4-dimethoxy-phenyl)vinyl ester], the figures for the IC50 (in the data set with PDE4 enzyme; in data set [1]) were 0.35 nM and 6.3 nM, respectively.
Take `COc1ccc(C(=O)O/C(=C\c2c(Cl)cncc2Cl)c2ccc(OC)c(OCC3CC3)c2)cc1OCC1CC1` [CHF 5546, 3-Cyclopropylmethoxy-4-methoxy-benzoic acid, (Z)-1-(3-cyclopropylmethoxy-4-methoxy-phenyl)-2-(3,5-dichloro-pyridin-4-yl)vinyl ester]: in data set [1], half-maximal inhibition (IC50) required 1 nM.
For `COc1ccc(/C(=C/c2c(Cl)cncc2Cl)OC(=O)c2ccc(OC(F)F)c(OCC3CC3)c2)cc1OC` [CHF 5555, 3-Cyclopropylmethoxy-4-difluoromethoxy-benzoic acid, (Z)-2-(3,5-dichloro-pyridin-4-yl)-1-(3,4-dimethoxy-phenyl)vinyl ester], the values for the 50% inhibitory concentration (IC50) (in the data set on PDE4 enzyme; in data set [1]) were 6.1 nM and 2 nM, respectively.
With `COc1ccc(/C(=C/c2c(Cl)cncc2Cl)OC(=O)C2(c3ccc(C)cc3)CC2)cc1OC` [CHF 5557, 1-p-Tolyl-cyclopropanecarboxylic acid, (Z)-2-(3,5-dichloro-pyridin-4-yl)-1-(3,4-dimethoxy-phenyl)vinyl ester], the IC50 worked out at 13.8 nM in the data set with PDE4 enzyme and 10.1 nM in data set [1].
